Our source for the TGI and GI50 values is PubChem BioAssay (NCI).

Test systems include U251 CNS; SF-295 CNS; 786-0 renal; MDA-MB-435; SNB-19 CNS; PC-3 prostate; OVCAR-5 ovarian; SF-268 CNS; UACC-62 melanoma.
Common to all, as to assay: growth of human tumour cells (NCI), 48 h

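Method: 48-hour compound exposure of cells in 96-well plates, five concentrations, linear interpolation of endpoints. GI50 is the concentration that inhibits growth by half. TGI denotes the concentration required for complete inhibition of growth.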 Where only a bound is given, the exact number is not on record here.

For the compound `CC(C)=CCC(O)C1=CC(=O)c2c(O)ccc(O)c2C1=O` (configuration not stated), the TGI with U251 CNS turned out to be 4.74 µM; in the assay with SF-295 CNS, 9.3 µM; in the assay on 786-0 renal it was 1.5 µM; in the assay with MDA-MB-435, 2.82 µM; in the assay on SNB-19 CNS, 7.78 µM; in the assay on PC-3 prostate, 5.17 µM. Besides, the TGI in the assay on OVCAR-5 ovarian is 3.89 µM; in the assay on SF-268 CNS, 6.09 µM; with UACC-62 melanoma, 3.41 µM.
As to `Cc1ccc(/C=C/C(=O)c2cccc3ccccc23)cc1`, the TGI stood at 25.6 µM in the assay with U251 CNS; 31.7 µM with SF-295 CNS; 28.2 µM in the assay on 786-0 renal; 29.6 µM in the assay on SNB-19 CNS; 27.5 µM in the assay with OVCAR-5 ovarian; 33.1 µM in the assay on SF-268 CNS. In the assay on UACC-62 melanoma, this compound yielded a TGI of 33.7 µM.
Regarding `C=CC[C@H](C[C@H](C[C@H](C[C@H](C[C@H](C[C@H](C[C@H](C[C@H](C[C@H](C[C@H](CCCCC)OC)OC)OC)OC)OC)OC)OC)OC)OC)OC`, the TGI in the assay on U251 CNS, with SF-295 CNS, in the assay with 786-0 renal, with SNB-19 CNS, in the assay on OVCAR-5 ovarian and with SF-268 CNS was above 100 µM each time. The compound also came in with a TGI in the assay with UACC-62 melanoma above 100 µM.
Consider `COc1nc(NC2OC(COC(C)=O)C(OC(C)=O)C(OC(C)=O)C2OC(C)=O)c2c(OC(C)=O)cc(=O)oc2n1` (configuration not stated), for which the TGI in the assay with U251 CNS, in the assay with SF-295 CNS, in the assay with 786-0 renal, with SNB-19 CNS, in the assay on OVCAR-5 ovarian and in the assay on UACC-62 melanoma was above 100 µM throughout.
With `CCc1c(OC(C)=O)c2c(NC3OCC(OC(C)=O)C(OC(C)=O)C3OC(C)=O)nc(SC)nc2oc1=O` (configuration not stated), the TGI in the assay on U251 CNS, in the assay with SF-295 CNS, with 786-0 renal, in the assay on SNB-19 CNS, with OVCAR-5 ovarian and with UACC-62 melanoma was above 100 µM each time.
On to `O=C(Nc1ccccc1-c1nn(C(=S)Nc2ccccc2)c(=S)n(C(=S)Nc2ccccc2)c1=O)C(F)(F)F`, for which the TGI with U251 CNS was above 70.9 µM; with SF-295 CNS it was above 100 µM; in the assay with 786-0 renal, above 100 µM; in the assay on SNB-19 CNS, above 100 µM; in the assay on OVCAR-5 ovarian, above 100 µM; with SF-268 CNS, above 100 µM. Also, in the assay with UACC-62 melanoma, the TGI stood at 44.4 µM.
On to `O=c1ccc2ccccc2cc1[O-].O=c1ccc2ccccc2cc1[O-].[O]=[U+2]=[O]`, for which the GI50 is 16.5 µM in the assay with U251 CNS; 17.7 µM in the assay on SF-295 CNS; 15 µM in the assay with 786-0 renal; 30.1 µM in the assay on OVCAR-5 ovarian; 22.2 µM with SF-268 CNS; 16.9 µM in the assay on UACC-62 melanoma. For the same compound, the TGI was 46.5 µM in the assay with U251 CNS; 63.5 µM in the assay with SF-295 CNS; 40.8 µM in the assay with 786-0 renal; above 100 µM with OVCAR-5 ovarian; 51.8 µM in the assay with SF-268 CNS; 39.6 µM in the assay with UACC-62 melanoma.
Turning to `O=C1CCC2(c3ccc(Cl)cc3)Nc3ccncc3N12` (configuration not stated), the TGI in the assay with U251 CNS, in the assay on SF-295 CNS, in the assay with 786-0 renal, in the assay on MDA-MB-435, in the assay with SNB-19 CNS and in the assay with PC-3 prostate was above 10 µM in each case. Also, the TGI in the assay on OVCAR-5 ovarian, in the assay on SF-268 CNS and in the assay on UACC-62 melanoma was above 10 µM each time.
For `O=c1c(-c2ccccc2)c2oc(c1-c1ccccc1)CSCc1cccc(c1)CSC2`, the TGI in the assay on U251 CNS is 88.2 µM; in the assay with SF-295 CNS, above 100 µM; with 786-0 renal, 89.8 µM; in the assay with SNB-19 CNS, above 100 µM; in the assay with OVCAR-5 ovarian it was above 100 µM; in the assay with SF-268 CNS, 85.2 µM. In the assay with UACC-62 melanoma, this compound showed a TGI above 100 µM.
For the compound `Nc1cc(NN=C(c2ccc(O)cc2)c2ccc(O)cc2)c([N+](=O)[O-])cc1[N+](=O)[O-]`, the GI50 in the assay on U251 CNS was 1.93 µM; in the assay with SF-295 CNS it was 1.4 µM; in the assay with 786-0 renal it was 1.83 µM; with MDA-MB-435, 1.7 µM; with SNB-19 CNS, 2.32 µM; with PC-3 prostate it was 3.31 µM. Besides, the figures for the GI50 in the assay on OVCAR-5 ovarian, with SF-268 CNS and in the assay on UACC-62 melanoma were 2.85 µM, 1.73 µM and 1.66 µM, respectively. Further, the TGI with U251 CNS was determined as 4.15 µM; with SF-295 CNS it was 2.91 µM; in the assay with 786-0 renal, 3.43 µM; with MDA-MB-435, 3.44 µM; in the assay with SNB-19 CNS, 7.12 µM; in the assay on PC-3 prostate it was 12.4 µM. Further, the results for the TGI in the assay on OVCAR-5 ovarian, in the assay on SF-268 CNS and with UACC-62 melanoma were 8.44 µM, 3.45 µM and 3.01 µM, respectively.
As to `CC1SC(c2ccc(F)cc2)N(NC(=O)C(O)c2ccccc2)C1=O` (configuration not stated), the GI50 with U251 CNS, in the assay with SF-295 CNS, with 786-0 renal, in the assay on MDA-MB-435, in the assay on SNB-19 CNS and in the assay on PC-3 prostate was above 100 µM in each case. Moreover, the GI50 with OVCAR-5 ovarian, in the assay on SF-268 CNS and in the assay with UACC-62 melanoma was above 100 µM each time. Moreover, the TGI in the assay with U251 CNS, in the assay with SF-295 CNS, in the assay on 786-0 renal, in the assay with MDA-MB-435, in the assay on SNB-19 CNS and with PC-3 prostate was above 100 µM throughout. Further, the TGI with OVCAR-5 ovarian, in the assay with SF-268 CNS and in the assay on UACC-62 melanoma was above 100 µM in each case.
Regarding `CCCCN(CCCC)C(=O)C(=O)C(C(=O)c1ccc(OC)cc1)c1ccc(OC)cc1` (configuration not stated), the TGI in the assay with U251 CNS, in the assay with SF-295 CNS, with 786-0 renal, in the assay with SNB-19 CNS, in the assay on OVCAR-5 ovarian and in the assay with SF-268 CNS was above 100 µM in each case. For the same compound, the TGI in the assay on UACC-62 melanoma is above 100 µM.
As for `CC(=O)O/N=C(/C)c1ccccc1O`, the TGI in the assay with U251 CNS, in the assay with SF-295 CNS, with 786-0 renal, with SNB-19 CNS, with OVCAR-5 ovarian and with SF-268 CNS was above 100 µM each time. The TGI in the assay on UACC-62 melanoma was above 100 µM.
On to `N#C/C(=C\c1cccc(Cl)c1Cl)c1ccccc1`, for which the TGI in the assay with U251 CNS is 69.5 µM; in the assay on SF-295 CNS, 60.4 µM; in the assay with 786-0 renal, 65.2 µM; with SNB-19 CNS, above 90.7 µM; in the assay on OVCAR-5 ovarian, above 100 µM; in the assay with SF-268 CNS, above 100 µM. Also, in the assay on UACC-62 melanoma, the TGI is above 100 µM.
